Values of other authors in patent publication US8927002B2, “Stent with a coating or a basic body containing a lithium salt and use of lithium salts for prevention of restenosis” (Biotronik VI Patent AG, priority 2008, dated 2015).

Assays:
[1] = tested on: various prostate cancer cell lines; conditions: cell culture; by reducing gene expression in the S-phase of the cell cycle
[2] = tested on: interleukins (IL-15; IL-8)

## [Cl-].[Li+] [lithium chloride]
[1]
  proliferation of various prostate cancer cell lines: significantly suppresses the proliferation
[2]
  secretion of certain interleukins (IL-15; IL-8): increased secretion
